Assay results published in PubChem BioAssay (NCI).
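1) Cells in 96-well plates. 2) Compound, 48 h, 5 concentrations. 3) Linear interpolation between surrounding doses. 4) Unreached endpoint = highest concentration. TGI marks complete inhibition of growth.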

Key:
Assay in all cases: growth of human tumour cells (NCI), 48 h
[1] = system: SK-MEL-28 melanoma
[2] = system: RPMI-8226 leukemia
[3] = system: NCI-H460 lung
[4] = system: LOX IMVI melanoma
[5] = system: SK-OV-3 ovarian
[6] = system: UO-31 renal
[7] = system: SF-295 CNS
[8] = system: PC-3 prostate
[9] = system: SW-620 colon
[10] = system: OVCAR-3 ovarian

Compound | TGI [1] [µM] | TGI [2] [µM] | TGI [3] [µM] | TGI [4] [µM] | TGI [5] [µM] | TGI [6] [µM] | TGI [7] [µM] | TGI [8] [µM] | TGI [9] [µM] | TGI [10] [µM]
COc1cccc2c1OC1(C=C2)Oc2ccccc2C(=O)N1C (centres undefined) | > 100 | > 100 | 98.6 | 14.5 | 74.3 | > 100 | 97.9 | > 100 | > 100 | > 100
N#CC12C(=O)N=C(N)C1(C#N)C(c1ccco1)NC1=C2CCCC1 (centres undefined) | > 100 | > 100 | > 100 | > 100 | > 100 | > 100 | > 100 | > 100 | > 100 | –
O=S(=O)(CCn1c(Sc2ccccc2)c(Sc2ccccc2)c2ccccc21)c1ccccc1 | > 100 | > 100 | > 100 | > 100 | > 100 | > 100 | > 100 | > 100 | > 100 | > 100
COc1cc(NS(C)(=O)=O)ccc1Nc1cc(C)[nH]c2ccc3nccc3c12 | > 100 | > 100 | > 100 | > 100 | – | > 100 | > 100 | > 100 | > 100 | > 100
O=C(/C=C/c1ccc2c(c1)OCO2)CC(=O)C(=O)c1c[nH]c2ccccc12 | > 100 | > 100 | > 100 | > 100 | > 100 | 64.1 | > 100 | > 100 | > 100 | > 100
O=C(O)/C=C(/C(=O)O)C12CCN3CC4=CCOC5CC(=O)NC1C5C4CC32 (centres undefined) | > 100 | > 100 | > 100 | > 100 | > 100 | > 100 | > 100 | > 100 | > 100 | > 100
COP(=O)(/C=C/c1cc(C(=O)OCc2ccccc2)n(S(=O)(=O)c2ccccc2)c1)OC | > 100 | – | > 100 | > 100 | > 100 | > 100 | > 100 | > 100 | > 100 | > 100
O=C1c2ccccc2-c2c1c(-c1ccc(F)cc1)nc1ccc3ccccc3c21 | > 100 | > 100 | > 100 | > 100 | > 100 | > 100 | > 100 | > 100 | > 100 | > 100
CCOC(=O)C1=C(C)C2C=C(c3cccs3)CC(c3ccc(Cl)cc3)=C2OC1=O (centres undefined) | > 100 | 38 | > 100 | 37.9 | > 100 | > 100 | > 100 | > 100 | > 100 | > 100
C=CCSc1nnc2cc(CN3CCCC3)c(-c3ccc(Cl)cc3)nn12 | 47.8 | > 100 | 36.1 | 48.1 | 55.5 | 30.4 | 53.7 | 35.3 | 93 | 36
CC1(C)CCCC2OC2CCC(C)(C)C1=O (centres undefined) | > 100 | > 100 | > 100 | > 100 | > 100 | > 100 | > 100 | > 100 | > 100 | > 100
CCC1(CC)C(=O)NN(C(=O)c2ccccc2)C1=O | > 100 | > 100 | > 100 | > 100 | > 100 | > 100 | > 100 | > 100 | > 100 | > 100
O=c1c2sc(=S)n(-c3ccc(F)cc3)c2ncn1/N=C/c1ccc(F)cc1F | > 100 | > 100 | > 100 | > 100 | 53.7 | 89.8 | 65.8 | > 100 | > 100 | 61.5
[O-][n+]1ccccc1Sc1nc(Sc2cccc[n+]2[O-])nc(Sc2cccc[n+]2[O-])n1 | 3.25 | – | 4.22 | 4 | 18.6 | 3.25 | 11.1 | 2.19 | – | 6.49
N=C(N)SCc1ccc2c(c1)Sc1ccccc1O2 | 38.7 | > 36.8 | 21.5 | 60.4 | 27 | 10.6 | 24.2 | 16.5 | 34 | 16.9
Cc1cc(N(CCOS(C)(=O)=O)CCOS(C)(=O)=O)ccc1C=O | 31.3 | > 100 | 6.35 | 58.7 | – | 35.1 | > 100 | > 100 | > 100 | 70.9
CCCCC(C(=O)NCCNC(=O)CCC(=O)N(C)O)C(=O)NCCNC(=O)CCC(=O)N(C)O | > 100 | > 100 | > 100 | > 100 | > 100 | > 100 | > 100 | > 100 | > 100 | > 100
COc1cccc2c(=O)oc(-c3ccc(C(C)(C)C)cc3)nc12 | > 100 | > 100 | > 100 | 53.9 | > 100 | > 100 | > 100 | > 100 | > 100 | 81.8
CCN(CC)/C(SCc1ccccc1)=C(\C(Cl)=C(Cl)Cl)[N+](=O)[O-] | 33.9 | 65.6 | 55.1 | 32.7 | > 100 | 38.9 | > 100 | 47.1 | 50.4 | 24.3
CN(C)c1ccc(C(=N/N=C2\C(=O)Nc3ccccc32)c2ccc(N(C)C)cc2)cc1 | > 57.2 | 3.46 | 11.2 | 28.7 | 11.9 | 30.8 | 4.13 | 40 | > 100 | 3.63
CCCCCCOc1ccc(C(=O)NOC)cc1 | > 100 | > 100 | > 100 | > 100 | > 100 | > 100 | > 100 | > 100 | > 100 | > 100
